Results on 14 compounds are retold here after ChEMBL document CHEMBL4219219, “The synthesis and antistaphylococcal activity of N-sulfonaminoethyloxime derivatives of dehydroabietic acid” (Bioorg Med Chem Lett, 2018).

Converted amounts (≈) assume the structure as drawn. The source made the active and inactive calls. No cut-off for these calls is given here. A value given as a limit tells only on which side of the number the result lay.

Test [1] has as its system Staphylococcus aureus. Put plainly: Antistaphylococcal activity against Staphylococcus aureus Newman after 18 hrs by two-fold serial dilution method. The class given is functional.
Test [2] concerns Staphylococcus aureus. Briefly: Antistaphylococcal activity against aminoglycosides/tetracycline-resistant Staphylococcus aureus NRS-1 after 18 hrs by two-fold serial dilution method. The test is classed as functional. As to conditions: NRS-1, 18 h.
The test system of test [3] is Staphylococcus aureus. Briefly: Antistaphylococcal activity against erythromycin-resistant Staphylococcus aureus NRS-70 after 18 hrs by two-fold serial dilution method. The test is classed as functional. The settings on record: NRS-70, 18 h.
The test system of test [4] is Staphylococcus aureus. Briefly: Antistaphylococcal activity against oxacillin/tetracycline-resistant Staphylococcus aureus NRS-100 after 18 hrs by two-fold serial dilution method. The class given is functional. As to conditions: NRS-100, 18 h.
Test [5] has as its system Staphylococcus aureus. Put plainly: Antistaphylococcal activity against gentamicin-resistant Staphylococcus aureus NRS-108 after 18 hrs by two-fold serial dilution method. The test is classed as functional. The settings on record: NRS-108, 18 h.
Test [6] relates to Staphylococcus aureus. Put plainly: Antistaphylococcal activity against linezolid-resistant Staphylococcus aureus NRS-271 containing phage type E-MRSA 15 after 18 hrs by two-fold serial dilution method. The class given is functional. The settings on record: NRS-271, 18 h.
In a further test the test system is Escherichia coli. Put plainly: Antibacterial activity against Escherichia coli AB1157 at 50 ug/ml after 18 hrs by two-fold serial dilution method. The class given is functional, organism-based.

As to `CC(C)c1ccc2c(c1)CC[C@H]1[C@](C)(C(=O)O)CCC[C@]21C` [DEHYDROABIETIC ACID], the MIC against Staphylococcus aureus [1] is 12.5 to 20 µg/mL (≈ 41.6 to 66.6 µM); in the test with Staphylococcus aureus [2], 12.5 to 25 µg/mL (≈ 41.6 to 83.2 µM); against Staphylococcus aureus [3] it was 12.5 to 25 µg/mL (≈ 41.6 to 83.2 µM); with Staphylococcus aureus [4], 12.5 to 25 µg/mL (≈ 41.6 to 83.2 µM); with Staphylococcus aureus [5], 12.5 to 25 µg/mL (≈ 41.6 to 83.2 µM); in the test with Staphylococcus aureus [6] it was 12.5 to 25 µg/mL (≈ 41.6 to 83.2 µM).

On to `CC(C)c1cc2c(cc1Br)[C@@]1(C)CCC[C@@](C)(C(=O)O)[C@@H]1C/C2=N\OCCNS(=O)(=O)c1ccc(Br)s1`, for which, in the test with Escherichia coli, the result was inactive. The MIC against Staphylococcus aureus [1], with Staphylococcus aureus [2], in the test on Staphylococcus aureus [3], in the test on Staphylococcus aureus [4], in the test on Staphylococcus aureus [5] and with Staphylococcus aureus [6] was 1.56 to 3.13 µg/mL (≈ 2.31 to 4.63 µM) in each case.

As for `CC(C)c1cc2c(cc1Br)[C@@]1(C)CCC[C@@](C)(C(=O)O)[C@@H]1C/C2=N\OCCNS(=O)(=O)c1ccccc1`, the outcome in the test with Escherichia coli was inactive. For the same compound, the MIC in the test on Staphylococcus aureus [1] lay within 1.56 to 3.13 µg/mL (≈ 2.64 to 5.29 µM); with Staphylococcus aureus [2], 1.56 to 3.13 µg/mL (≈ 2.64 to 5.29 µM); with Staphylococcus aureus [3], 0.78 to 1.56 µg/mL (≈ 1.32 to 2.64 µM); in the test on Staphylococcus aureus [4], 1.56 to 3.13 µg/mL (≈ 2.64 to 5.29 µM); against Staphylococcus aureus [5], 1.56 to 3.13 µg/mL (≈ 2.64 to 5.29 µM); in the test on Staphylococcus aureus [6], 1.56 to 3.13 µg/mL (≈ 2.64 to 5.29 µM).

In the case of `CCCS(=O)(=O)NCCO/N=C1\C[C@H]2[C@](C)(C(=O)O)CCC[C@]2(C)c2cc(Br)c(C(C)C)cc21`, in the test with Escherichia coli, the outcome was inactive. Also, the MIC against Staphylococcus aureus [1] lay within 12.5 to 25 µg/mL (≈ 22.4 to 44.8 µM).

`CC(C)c1cc2c(cc1Br)[C@@]1(C)CCC[C@@](C)(C(=O)O)[C@@H]1C/C2=N\OCCNS(=O)(=O)c1c(Cl)cccc1Cl`: the result in the test with Escherichia coli was inactive. Further, the MIC lay within 1.56 to 3.13 µg/mL (≈ 2.36 to 4.74 µM) against Staphylococcus aureus [1]; 1.56 to 3.13 µg/mL (≈ 2.36 to 4.74 µM) against Staphylococcus aureus [2]; 0.78 to 1.56 µg/mL (≈ 1.18 to 2.36 µM) against Staphylococcus aureus [3]; 1.56 to 3.13 µg/mL (≈ 2.36 to 4.74 µM) against Staphylococcus aureus [4]; 1.56 to 3.13 µg/mL (≈ 2.36 to 4.74 µM) against Staphylococcus aureus [5]; 1.56 to 3.13 µg/mL (≈ 2.36 to 4.74 µM) in the test on Staphylococcus aureus [6].

Take `CC(C)c1cc2c(cc1Br)[C@@]1(C)CCC[C@@](C)(C(=O)O)[C@@H]1C/C2=N\OCCNS(=O)(=O)c1cccc(C(F)(F)F)c1`: the outcome in the test on Escherichia coli was inactive. Besides, the MIC lay within 0.39 to 0.78 µg/mL (≈ 0.591 to 1.18 µM) in the test with Staphylococcus aureus [1]; 1.56 to 3.13 µg/mL (≈ 2.37 to 4.75 µM) in the test with Staphylococcus aureus [2]; 0.78 to 1.56 µg/mL (≈ 1.18 to 2.37 µM) against Staphylococcus aureus [3]; 1.56 to 3.13 µg/mL (≈ 2.37 to 4.75 µM) in the test with Staphylococcus aureus [4]; 0.78 to 1.56 µg/mL (≈ 1.18 to 2.37 µM) in the test on Staphylococcus aureus [5]; 1.56 to 3.13 µg/mL (≈ 2.37 to 4.75 µM) against Staphylococcus aureus [6].

Take `COc1ccc(S(=O)(=O)NCCO/N=C2\C[C@H]3[C@](C)(C(=O)O)CCC[C@]3(C)c3cc(Br)c(C(C)C)cc32)cc1`: the result in the test with Escherichia coli was inactive. Besides, the MIC against Staphylococcus aureus [1] lay in the range of 3.13 to 6.25 µg/mL (≈ 5.04 to 10.1 µM).

Regarding `CC(C)c1cc2c(cc1Br)[C@@]1(C)CCC[C@@](C)(C(=O)O)[C@@H]1C/C2=N\OCCNS(=O)(=O)c1cccc2cccnc12`, the result in the test with Escherichia coli was inactive. Further, the MIC is 1.56 to 3.13 µg/mL (≈ 2.43 to 4.87 µM) with Staphylococcus aureus [1]; 1.56 to 3.13 µg/mL (≈ 2.43 to 4.87 µM) in the test with Staphylococcus aureus [2]; 1.56 to 3.13 µg/mL (≈ 2.43 to 4.87 µM) in the test on Staphylococcus aureus [3]; 3.13 to 6.25 µg/mL (≈ 4.87 to 9.73 µM) in the test on Staphylococcus aureus [4]; 3.13 to 6.25 µg/mL (≈ 4.87 to 9.73 µM) against Staphylococcus aureus [5]; 3.13 to 6.25 µg/mL (≈ 4.87 to 9.73 µM) in the test with Staphylococcus aureus [6].

Consider `CC(C)c1cc2c(cc1Br)[C@@]1(C)CCC[C@@](C)(C(=O)O)[C@@H]1C/C2=N\OCCNS(=O)(=O)c1ccc(Cl)c(C(F)(F)F)c1`, for which the outcome in the test with Escherichia coli was inactive. The MIC is 0.78 to 1.56 µg/mL (≈ 1.12 to 2.25 µM) in the test with Staphylococcus aureus [1]; 12.5 to 25 µg/mL (≈ 18 to 36 µM) against Staphylococcus aureus [2]; 0.78 to 1.56 µg/mL (≈ 1.12 to 2.25 µM) with Staphylococcus aureus [3]; over 50 µg/mL in the test with Staphylococcus aureus [4]; 0.78 to 1.56 µg/mL (≈ 1.12 to 2.25 µM) in the test with Staphylococcus aureus [5]; 25 to 50 µg/mL (≈ 36 to 72 µM) in the test with Staphylococcus aureus [6].

As to `CC(C)c1cc2c(cc1Br)[C@@]1(C)CCC[C@@](C)(C(=O)O)[C@@H]1C/C2=N\OCCNS(=O)(=O)c1cc(F)c(F)c(F)c1`, the result in the test with Escherichia coli was inactive. The MIC against Staphylococcus aureus [1] is over 50 µg/mL.

With `CC(C)c1cc2c(cc1Br)[C@@]1(C)CCC[C@@](C)(C(=O)O)[C@@H]1C/C2=N\OCCNS(=O)(=O)c1cccc(Cl)c1`, the outcome with Escherichia coli was inactive. Besides, the MIC lay in the range of 0.78 to 1.56 µg/mL (≈ 1.25 to 2.49 µM) against Staphylococcus aureus [1]; 1.56 to 3.13 µg/mL (≈ 2.49 to 5 µM) against Staphylococcus aureus [2]; 0.78 to 1.56 µg/mL (≈ 1.25 to 2.49 µM) against Staphylococcus aureus [3]; 1.56 to 3.13 µg/mL (≈ 2.49 to 5 µM) in the test on Staphylococcus aureus [4]; 1.56 to 3.13 µg/mL (≈ 2.49 to 5 µM) against Staphylococcus aureus [5]; 1.56 to 3.13 µg/mL (≈ 2.49 to 5 µM) with Staphylococcus aureus [6].

Regarding `CC(C)c1cc2c(cc1Br)[C@@]1(C)CCC[C@@](C)(C(=O)O)[C@@H]1C/C2=N\OCCNS(=O)(=O)c1ccccc1Br`, the result in the test with Escherichia coli was inactive. Further, the MIC against Staphylococcus aureus [1], against Staphylococcus aureus [2], against Staphylococcus aureus [3], against Staphylococcus aureus [4], in the test on Staphylococcus aureus [5] and in the test with Staphylococcus aureus [6] was 1.56 to 3.13 µg/mL (≈ 2.33 to 4.67 µM) in each case.

For `Cc1ccccc1S(=O)(=O)NCCO/N=C1\C[C@H]2[C@](C)(C(=O)O)CCC[C@]2(C)c2cc(Br)c(C(C)C)cc21`, the result in the test on Escherichia coli was inactive. Besides, the MIC in the test with Staphylococcus aureus [1] is 1.56 to 3.13 µg/mL (≈ 2.58 to 5.17 µM); in the test on Staphylococcus aureus [2], 1.56 to 3.13 µg/mL (≈ 2.58 to 5.17 µM); in the test with Staphylococcus aureus [3], 1.56 to 3.13 µg/mL (≈ 2.58 to 5.17 µM); in the test on Staphylococcus aureus [4], 3.13 to 6.25 µg/mL (≈ 5.17 to 10.3 µM); in the test on Staphylococcus aureus [5], 1.56 to 3.13 µg/mL (≈ 2.58 to 5.17 µM); in the test with Staphylococcus aureus [6] it was 1.56 to 3.13 µg/mL (≈ 2.58 to 5.17 µM).

For the compound `CC(C)c1cc2c(cc1Br)[C@@]1(C)CCC[C@@](C)(C(=O)O)[C@@H]1C/C2=N\OCCNS(=O)(=O)c1cc(C(F)(F)F)cc(C(F)(F)F)c1`, the outcome in the test with Escherichia coli was inactive. Also, the MIC in the test with Staphylococcus aureus [1] is 0.78 to 1.56 µg/mL (≈ 1.07 to 2.14 µM); in the test on Staphylococcus aureus [2], over 50 µg/mL; against Staphylococcus aureus [3], 0.78 to 1.56 µg/mL (≈ 1.07 to 2.14 µM); in the test on Staphylococcus aureus [4], over 50 µg/mL; against Staphylococcus aureus [5], 0.78 to 1.56 µg/mL (≈ 1.07 to 2.14 µM); against Staphylococcus aureus [6] it was over 50 µg/mL.
